Organism: Rattus norvegicus
Test: Open TG-GATES - Regimen: Daily Repeat
Assay type: toxicity, organism-based, Sprague-Dawley
Set-up: regimen Daily Repeat, gender Male, age 6 weeks
Settings: in vivo, po, route gavage; for TP / gamma-GTP / ALP / ALT / AST / BUN / CRE / Cl / DBIL / GLC / IP / K / LDH / Na / PL / RALB / TBIL / TC / TG / Ca: tissue Plasma; for APTT / Bas / Eos / Fbg / Hb / Ht / Lym / MCH / MCHC / MCV / Mono / Neu / PT / Plat / RBC / Ret / WBC: tissue Blood; for KIDNEY_L / KIDNEY_R / KIDNEY_TOTAL: tissue Kidney; for LIVER: tissue Liver
[1] = 300 mg/kg, […], dose level Middle, time 28 day
[2] = 1000 mg/kg, 72 h, dose level High, time 3 day
[3] = 1000 mg/kg, […], dose level High, time 7 day
[4] = 1000 mg/kg, […], dose level High, time 14 day
[5] = 1000 mg/kg, […], dose level High, time 28 day

Work on `COC(=O)C1=C(C)NC(C)=C(C(=O)OC)C1c1ccccc1[N+](=O)[O-]` [NIFEDIPINE] yielded a TP [1] of 6.1 g/dL, a gamma-GTP [1] of 1 IU/L and a TERMINAL_BW [2] of 202 g. The APTT [2] was 21.7 s, the Bas [2] was 0% and the Eos [2] was 0.8%. The Fbg [2] was 252.6 mg/dL, the Hb [2] was 14 g/dL and the Ht [2] was 42.2%. The Lym [2] was 76.8%, the MCH [2] was 20.5 pg and the MCHC [2] was 33.2%. The MCV [2] was 61.8 fL, the Mono [2] was 3.2% and the Neu [2] was 18.2%. For the same compound, the PT [2] was 14.1 s, the Plat [2] was 134.4 x10_4/uL and the RBC [2] was 683.2 x10_4/ul. The Ret [2] was 7.3%, the WBC [2] was 97.2 x10_2/uL and the KIDNEY_L [2] was 0.9 g. For the same compound, the KIDNEY_R [2] was 0.9 g, the KIDNEY_TOTAL [2] was 1.7 g and the ALP [2] was 1290.2 IU/L. It also gave an ALT [2] of 41.6 IU/L, an AST [2] of 67.6 IU/L and a BUN [2] of 14 mg/dL. The CRE [2] was 0.2 mg/dL, the Cl [2] was 107.8 meq/L and the DBIL [2] was 0.016 mg/dL. It also gave a GLC [2] of 153 mg/dL, an IP [2] of 6.1 mg/dL and a K [2] of 4.1 meq/L. It also gave an LDH [2] of 69.6 IU/L, a Na [2] of 143.6 meq/L and a PL [2] of 123 mg/dL. For the same compound, the RALB [2] was 2.5 g/dL, the TBIL [2] was 0.032 mg/dL and the TC [2] was 67.2 mg/dL. The TG [2] was 54 mg/dL, the TP [2] was 5.3 g/dL and the gamma-GTP [2] was 0.8 IU/L. It also gave a TERMINAL_BW [3] of 238.1 g, a TERMINAL_BW [4] of 309.6 g and a TERMINAL_BW [5] of 388.3 g. It also gave an APTT [3] of 16.8 s, a Bas [3] of 0.4% and an Eos [3] of 0.8%. For the same compound, the Fbg [3] was 253.4 mg/dL, the Hb [3] was 14.1 g/dL and the Ht [3] was 42.6%. The Lym [3] was 71.4%, the MCH [3] was 20.2 pg and the MCHC [3] was 33.1%. For the same compound, the MCV [3] was 61 fL, the Mono [3] was 2.8% and the Neu [3] was 23.8%. The PT [3] was 14.2 s, the Plat [3] was 142.6 x10_4/uL and the RBC [3] was 701.2 x10_4/ul. The Ret [3] was 5.9%, the WBC [3] was 121.8 x10_2/uL and the APTT [4] was 21.1 s. It also gave a Bas [4] of 0.4%, an Eos [4] of 0.6% and a Fbg [4] of 267.4 mg/dL. The Hb [4] was 14.3 g/dL, the Ht [4] was 42.8% and the Lym [4] was 73.8%. The MCH [4] was 20.6 pg, the MCHC [4] was 33.5% and the MCV [4] was 61.4 fL. The Mono [4] was 3%, the Neu [4] was 21.4% and the PT [4] was 13.8 s. The Plat [4] was 120.3 x10_4/uL, the RBC [4] was 697.2 x10_4/ul and the Ret [4] was 5.8%. For the same compound, the WBC [4] was 117.1 x10_2/uL, the APTT [5] was 21.7 s and the Bas [5] was 0%. For the same compound, the Eos [5] was 0.8%, the Fbg [5] was 252.6 mg/dL and the Hb [5] was 14 g/dL. For the same compound, the Ht [5] was 42.2%, the Lym [5] was 76.8% and the MCH [5] was 20.5 pg. For the same compound, the MCHC [5] was 33.2%, the MCV [5] was 61.8 fL and the Mono [5] was 3.2%. For the same compound, the Neu [5] was 18.2%, the PT [5] was 14.1 s and the Plat [5] was 134.4 x10_4/uL. The RBC [5] was 683.2 x10_4/ul, the Ret [5] was 7.3% and the WBC [5] was 97.2 x10_2/uL. For the same compound, the KIDNEY_L [3] was 1 g, the KIDNEY_R [3] was 0.9 g and the KIDNEY_TOTAL [3] was 1.9 g. For the same compound, the KIDNEY_L [4] was 1.2 g, the KIDNEY_R [4] was 1.2 g and the KIDNEY_TOTAL [4] was 2.4 g. For the same compound, the KIDNEY_L [5] was 1.4 g, the KIDNEY_R [5] was 1.3 g and the KIDNEY_TOTAL [5] was 2.7 g. For the same compound, the LIVER [3] was 12.1 g, the LIVER [4] was 15.5 g and the LIVER [5] was 17.5 g. The ALP [3] was 1072.4 IU/L, the ALT [3] was 40.4 IU/L and the AST [3] was 68.2 IU/L. For the same compound, the BUN [3] was 15 mg/dL, the CRE [3] was 0.2 mg/dL and the Cl [3] was 105.8 meq/L. It also gave a DBIL [3] of 0.016 mg/dL, a GLC [3] of 155.6 mg/dL and an IP [3] of 6.4 mg/dL. It also gave a K [3] of 3.9 meq/L, an LDH [3] of 86 IU/L and a Na [3] of 144.2 meq/L. The PL [3] was 129 mg/dL, the RALB [3] was 2.7 g/dL and the TBIL [3] was 0.028 mg/dL. It also gave a TC [3] of 68.8 mg/dL, a TG [3] of 70.6 mg/dL and a TP [3] of 5.7 g/dL. It also gave a gamma-GTP [3] of 1 IU/L, an ALP [4] of 1620.8 IU/L and an ALT [4] of 41.6 IU/L. The AST [4] was 66.6 IU/L, the BUN [4] was 18.6 mg/dL and the CRE [4] was 0.2 mg/dL. The Ca [4] was 11 mg/dL, the Cl [4] was 104.2 meq/L and the DBIL [4] was 0.012 mg/dL. It also gave a GLC [4] of 172.8 mg/dL, an IP [4] of 7.3 mg/dL and a K [4] of 4 meq/L. For the same compound, the LDH [4] was 51 IU/L, the Na [4] was 143.4 meq/L and the PL [4] was 161 mg/dL. The RALB [4] was 2.8 g/dL, the TBIL [4] was 0.018 mg/dL and the TC [4] was 84.2 mg/dL. It also gave a TG [4] of 101.8 mg/dL, a TP [4] of 5.9 g/dL and a gamma-GTP [4] of 1 IU/L. It also gave an ALP [5] of 975.4 IU/L, an ALT [5] of 40.2 IU/L and an AST [5] of 64.4 IU/L. For the same compound, the BUN [5] was 18.2 mg/dL, the CRE [5] was 0.3 mg/dL and the Ca [5] was 10.3 mg/dL. For the same compound, the Cl [5] was 106.6 meq/L, the DBIL [5] was 0.012 mg/dL and the GLC [5] was 162.8 mg/dL. The IP [5] was 5.8 mg/dL, the K [5] was 3.7 meq/L and the LDH [5] was 62.8 IU/L. It also gave a Na [5] of 144.4 meq/L, a PL [5] of 144 mg/dL and an RALB [5] of 2.7 g/dL. For the same compound, the TBIL [5] was 0.028 mg/dL, the TC [5] was 73.6 mg/dL and the TG [5] was 115.4 mg/dL. It also gave a TP [5] of 6 g/dL and a gamma-GTP [5] of 1 IU/L.
